In US20240261306A1, “FORMULATIONS OF PSILOCYBIN” (CYBIN IRL LIMITED, priority 2021, published 2024):
Marks after values point to notes of the source that are not given here.

How the values were obtained:
[1] = XRPD of freeze-dried solid dispersions and admixtures; format: physicochemical; details: as prepared, solid form of psilocybin (PY) in freeze-dried dispersion, physical mixture or starting material
Protocol: The samples were prepared in silicon low background holders using light manual pressure to keep the sample surface flat and level with the reference surface of the sample holder. The single crystal Si low background holder has a circular recess (10 mm diameter and about 0.2 mm depth) that holds the sample.
The Rigaku Smart-Lab diffraction system used was configured for Bragg-Brentano reflection geometry using a line source X-ray beam. The Bragg-Brentano geometry was controlled by passive divergence and receiving slits with the sample itself acting as the focusing component for the optics. The figures were created using PlotMon V2.1.1.0.
High-resolution XRPD analysis was performed using Rigaku Smart-Lab diffraction system configured for Debye-Scherrer transmission geometry. The Debye-Scherrer convergent beam geometry utilizes a curved x-ray mirror to focus the incident beam through the sample and onto the detector plane. The axial divergence of the X-ray beam was controlled by 5.0° Soller slits in both the incident and diffracted beam paths.
Freeze-dried solid dispersions of Examples 1-5, and corresponding Reference Examples, were characterized using X-ray powder diffraction (XRPD).

[2] = XRPD and mDSC characterization of spray dried solid dispersions (t=0); format: physicochemical; details: Characterization (t = 0)
Protocol: X-ray power diffraction (XRPD): XRPD patterns were collected on a Bruker AXS D2 diffractometer using Cu Kα radiation (30 kV, 10 mA), θ-θ geometry, using a LynxEye detector from 5-42° […].
The details of the data collection are: • Angular range: 5 to 42° 2θ • Step size: 0.024° 2θ • Collection time: 0.1 seconds per step.
Samples were run under ambient conditions and prepared as flat plate specimens using powder without grinding. Approximately 1-2 mg of the sample was lightly pressed on a silicon wafer to obtain a flat surface.
Modulated differential scanning calorimetry (mDSC): TOPEM® is a temperature modulated DSC method which differs from conventional DSC in allowing the total heat flow to be separated into reversing and non-reversing heat flow components. Such techniques help distinguish between processes or transitions that overlap or lie very close to one another. The glass transition temperature (Tg) was determined from the reversible heatflow component.
TOPEM® DSC data were collected on a Mettler DSC 3+ equipped with a 34 position auto-sampler. The instrument was calibrated for energy and temperature using certified indium. Typically, 3-5 mg of each sample, in a pin-holed aluminium pan, was heated at 2 K·min^−1 from 30° C. to 220° C. with a pulse height of 0.64 K and a pulse width 15-30 sec. A nitrogen purge at 50 mL·min^−1 was maintained over the sample. […]

## CN(C)CCc1c[nH]c2cccc(OP(=O)(O)O)c12 [Crystalline PY starting material, 3-(2-(dimethylamino)ethyl)-1H-indol-4-yl dihydrogen phosphate]
[1]
  XRPD Results: crystalline PY (methanol solvate)^a
[1]; listed as crystalline psilocybin starting material
  XRPD Results: crystalline psilocybin methanol solvate with a small quantity of Form B

## CN(C)CCc1c[nH]c2cccc(OP(=O)(O)O)c12 [Psilocybin (PY), 3-(2-(dimethylamino)ethyl)-1H-indol-4-yl dihydrogen phosphate]
[2]
  XRPD: Amorphous
[2]; mDSC
  Tg: 161 °C
